Measured values: article PMC8429728, “TNK1 is a ubiquitin-binding and 14-3-3-regulated kinase that can be targeted to block tumor growth” (Nature Communications, 2021)
Where two headings read alike, the source gives them in different places.

Experiments:
Assay in all cases: biochemical
Design in all cases: Reaction Biology 371-kinase panel at Km ATP, per cent enzyme activity relative to DMSO, single dose in duplicate
Settings in all cases: duplicate measurements, Km ATP
EPHA6 = EPHA6 (Homo sapiens, UniProt Q9UF33)
EPHA6, sequence (Q9UF33 whole entry): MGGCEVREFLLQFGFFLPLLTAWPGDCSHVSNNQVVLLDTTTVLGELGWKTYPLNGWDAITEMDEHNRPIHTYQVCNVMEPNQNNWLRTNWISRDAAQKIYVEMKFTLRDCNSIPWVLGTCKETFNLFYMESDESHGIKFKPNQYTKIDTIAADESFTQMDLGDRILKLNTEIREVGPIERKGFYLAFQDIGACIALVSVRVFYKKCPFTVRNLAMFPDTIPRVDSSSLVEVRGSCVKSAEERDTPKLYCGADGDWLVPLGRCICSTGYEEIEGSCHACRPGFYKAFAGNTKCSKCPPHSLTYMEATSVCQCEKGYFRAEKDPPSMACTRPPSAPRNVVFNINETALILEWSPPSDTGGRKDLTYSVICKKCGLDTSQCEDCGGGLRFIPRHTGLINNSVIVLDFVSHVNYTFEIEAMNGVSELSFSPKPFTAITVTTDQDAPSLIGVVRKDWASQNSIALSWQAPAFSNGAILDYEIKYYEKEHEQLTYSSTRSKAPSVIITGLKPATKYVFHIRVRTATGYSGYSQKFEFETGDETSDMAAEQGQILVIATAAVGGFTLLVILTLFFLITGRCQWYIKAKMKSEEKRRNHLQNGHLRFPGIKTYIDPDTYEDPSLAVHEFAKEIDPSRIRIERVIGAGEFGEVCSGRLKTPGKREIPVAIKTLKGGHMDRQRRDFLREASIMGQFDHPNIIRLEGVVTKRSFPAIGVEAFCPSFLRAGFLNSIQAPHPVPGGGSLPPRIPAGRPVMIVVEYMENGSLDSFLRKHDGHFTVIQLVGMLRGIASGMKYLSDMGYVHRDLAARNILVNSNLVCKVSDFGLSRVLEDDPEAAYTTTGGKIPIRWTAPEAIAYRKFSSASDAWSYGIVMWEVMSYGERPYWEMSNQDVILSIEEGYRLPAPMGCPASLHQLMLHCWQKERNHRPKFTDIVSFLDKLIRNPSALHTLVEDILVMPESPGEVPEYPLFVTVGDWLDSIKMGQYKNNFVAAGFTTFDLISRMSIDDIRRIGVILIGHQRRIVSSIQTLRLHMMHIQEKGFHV
Procedure, shortened: (§1)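 First, kinases from a 371-member panel were exposed in vitro to 300 nM inhibitor. Next, % enzyme activity versus DMSO was computed. Finally, IC50s were derived by sigmoidal dose-response fitting with variable slope and a zero bottom constraint.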

LKB1 = target: T1, LKB1 (Homo sapiens, UniProt Q15831)
T1 construct: gene STK11
Procedure, shortened: as §1

PKAcg = target: T2, PKAcg (Homo sapiens, UniProt P22612)
T2 construct: gene PRKACG
T2 sequence (P22612 whole entry): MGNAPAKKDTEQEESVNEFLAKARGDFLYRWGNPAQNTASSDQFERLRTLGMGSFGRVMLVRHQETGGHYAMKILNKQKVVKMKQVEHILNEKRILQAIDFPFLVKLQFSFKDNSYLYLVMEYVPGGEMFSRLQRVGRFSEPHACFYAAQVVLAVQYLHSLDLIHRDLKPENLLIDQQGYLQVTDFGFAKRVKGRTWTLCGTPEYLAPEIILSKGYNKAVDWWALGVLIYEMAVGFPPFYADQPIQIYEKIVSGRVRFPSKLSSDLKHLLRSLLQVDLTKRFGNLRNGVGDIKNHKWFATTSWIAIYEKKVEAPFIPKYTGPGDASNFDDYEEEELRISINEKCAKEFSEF
Procedure, shortened: as §1

TAOK3/JIK = TAOK3/JIK (Homo sapiens, UniProt Q9H2K8)
Procedure, shortened: as §1

PIM3 = PIM3 (Homo sapiens, UniProt Q86V86)
Procedure, shortened: as §1

c-MER = target: T3, c-MER (Homo sapiens, UniProt Q12866)
T3 construct: gene MERTK
Procedure, shortened: as §1

P38a/MAPK14 = P38a/MAPK14 (Homo sapiens, UniProt Q16539)
Procedure, shortened: as §1

CDK4/cyclin D1 = CDK4/cyclin D1 (Homo sapiens, UniProt P11802)
CDK4/cyclin D1, sequence (P11802 whole entry): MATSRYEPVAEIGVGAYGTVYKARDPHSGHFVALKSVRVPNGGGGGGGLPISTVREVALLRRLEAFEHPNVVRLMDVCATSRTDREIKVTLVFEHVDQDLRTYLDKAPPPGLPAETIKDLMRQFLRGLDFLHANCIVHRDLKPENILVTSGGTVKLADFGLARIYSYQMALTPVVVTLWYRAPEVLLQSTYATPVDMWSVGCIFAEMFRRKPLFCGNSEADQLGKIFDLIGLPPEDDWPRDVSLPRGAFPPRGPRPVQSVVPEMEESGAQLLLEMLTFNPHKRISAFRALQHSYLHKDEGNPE
CDK4/cyclin D1, sequence (P24385 whole entry partner): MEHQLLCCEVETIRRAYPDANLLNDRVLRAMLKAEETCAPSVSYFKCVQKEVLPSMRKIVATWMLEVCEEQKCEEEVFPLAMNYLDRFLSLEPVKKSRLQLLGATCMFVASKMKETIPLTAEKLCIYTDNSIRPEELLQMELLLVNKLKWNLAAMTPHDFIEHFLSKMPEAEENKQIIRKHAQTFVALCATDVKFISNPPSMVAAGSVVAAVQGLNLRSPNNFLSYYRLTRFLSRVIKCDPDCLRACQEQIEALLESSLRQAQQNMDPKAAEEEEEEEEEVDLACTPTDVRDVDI
Procedure, shortened: as §1

MEK2 = target: T4, MEK2 (Homo sapiens, UniProt P36507)
T4 construct: gene MAP2K2
Procedure, shortened: as §1

CAMKK1 = CAMKK1 (Homo sapiens, UniProt Q8N5S9)
Procedure, shortened: as §1

CDK5/P25 = target: T5, CDK5/P25 (Homo sapiens, UniProt Q00535)
T5 construct: p25
T5 sequence (Q00535 whole entry): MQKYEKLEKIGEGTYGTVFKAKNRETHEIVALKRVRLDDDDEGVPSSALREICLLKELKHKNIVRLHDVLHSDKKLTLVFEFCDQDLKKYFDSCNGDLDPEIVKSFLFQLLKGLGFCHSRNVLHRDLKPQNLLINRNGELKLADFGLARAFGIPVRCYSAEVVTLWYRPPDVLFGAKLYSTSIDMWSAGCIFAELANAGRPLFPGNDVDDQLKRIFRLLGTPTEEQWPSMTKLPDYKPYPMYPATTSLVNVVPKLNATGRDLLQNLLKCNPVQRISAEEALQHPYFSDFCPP
T5 sequence (Q15078 whole entry partner): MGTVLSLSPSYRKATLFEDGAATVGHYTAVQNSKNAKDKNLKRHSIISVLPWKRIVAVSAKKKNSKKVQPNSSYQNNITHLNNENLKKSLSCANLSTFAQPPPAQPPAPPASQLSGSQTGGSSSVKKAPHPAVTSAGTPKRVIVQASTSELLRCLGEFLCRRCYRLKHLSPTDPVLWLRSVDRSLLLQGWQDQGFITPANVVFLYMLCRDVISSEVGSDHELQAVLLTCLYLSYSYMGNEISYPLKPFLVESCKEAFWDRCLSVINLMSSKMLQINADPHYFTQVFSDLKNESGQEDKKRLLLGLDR
Procedure, shortened: as §1

SIK2 = SIK2 (Homo sapiens, UniProt Q9H0K1)
Procedure, shortened: as §1

PKCzeta = target: T6, PKCzeta (Homo sapiens, UniProt Q05513)
T6 construct: gene PRKCZ
Procedure, shortened: as §1

YES/YES1 = YES/YES1 (Homo sapiens, UniProt P07947)
YES/YES1, sequence (P07947 whole entry): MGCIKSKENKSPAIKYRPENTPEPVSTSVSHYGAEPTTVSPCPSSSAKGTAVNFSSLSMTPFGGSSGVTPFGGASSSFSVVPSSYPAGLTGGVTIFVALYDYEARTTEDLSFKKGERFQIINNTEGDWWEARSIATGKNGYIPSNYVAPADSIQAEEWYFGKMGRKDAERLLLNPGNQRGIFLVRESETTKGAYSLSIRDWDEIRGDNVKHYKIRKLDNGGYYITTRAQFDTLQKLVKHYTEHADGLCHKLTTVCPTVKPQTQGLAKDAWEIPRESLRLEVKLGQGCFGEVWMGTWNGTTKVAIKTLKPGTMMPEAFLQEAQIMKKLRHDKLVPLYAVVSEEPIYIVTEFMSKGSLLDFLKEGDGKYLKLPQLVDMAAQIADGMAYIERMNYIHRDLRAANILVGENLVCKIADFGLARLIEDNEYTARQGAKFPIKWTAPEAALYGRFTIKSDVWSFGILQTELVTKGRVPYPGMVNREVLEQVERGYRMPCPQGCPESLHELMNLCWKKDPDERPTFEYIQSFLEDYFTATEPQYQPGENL
Procedure, shortened: as §1

FLT3 = FLT3 (Homo sapiens, UniProt P36888)
Procedure, shortened: as §1

PKG1a = target: T7, PKG1a (Homo sapiens, UniProt Q13976)
T7 construct: gene PRKG1; isoform alpha
T7 sequence (Q13976 whole entry, canonical isoform): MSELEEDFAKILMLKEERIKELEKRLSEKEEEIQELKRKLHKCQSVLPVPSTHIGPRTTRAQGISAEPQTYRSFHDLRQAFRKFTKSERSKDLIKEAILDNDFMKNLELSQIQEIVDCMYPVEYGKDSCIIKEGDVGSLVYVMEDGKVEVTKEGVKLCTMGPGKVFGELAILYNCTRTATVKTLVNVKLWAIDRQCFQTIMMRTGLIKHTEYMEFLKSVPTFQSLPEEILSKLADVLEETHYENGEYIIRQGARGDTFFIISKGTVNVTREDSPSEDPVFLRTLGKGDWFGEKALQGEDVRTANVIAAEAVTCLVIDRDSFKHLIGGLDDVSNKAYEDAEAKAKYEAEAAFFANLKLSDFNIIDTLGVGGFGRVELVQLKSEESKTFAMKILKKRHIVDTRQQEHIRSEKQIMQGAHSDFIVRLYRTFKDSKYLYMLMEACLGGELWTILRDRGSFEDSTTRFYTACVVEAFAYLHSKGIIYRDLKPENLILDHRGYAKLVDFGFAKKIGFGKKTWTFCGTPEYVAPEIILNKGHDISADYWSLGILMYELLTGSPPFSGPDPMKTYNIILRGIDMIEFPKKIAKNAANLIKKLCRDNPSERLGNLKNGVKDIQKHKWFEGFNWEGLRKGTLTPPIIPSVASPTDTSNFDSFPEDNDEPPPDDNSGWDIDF
Procedure, shortened: as §1

EPHA1 = EPHA1 (Homo sapiens, UniProt P21709)
Procedure, shortened: as §1

SRPK1 = SRPK1 (Homo sapiens, UniProt Q96SB4)
Procedure, shortened: as §1

NEK9 = NEK9 (Homo sapiens, UniProt Q8TD19)
NEK9, sequence (Q8TD19 whole entry): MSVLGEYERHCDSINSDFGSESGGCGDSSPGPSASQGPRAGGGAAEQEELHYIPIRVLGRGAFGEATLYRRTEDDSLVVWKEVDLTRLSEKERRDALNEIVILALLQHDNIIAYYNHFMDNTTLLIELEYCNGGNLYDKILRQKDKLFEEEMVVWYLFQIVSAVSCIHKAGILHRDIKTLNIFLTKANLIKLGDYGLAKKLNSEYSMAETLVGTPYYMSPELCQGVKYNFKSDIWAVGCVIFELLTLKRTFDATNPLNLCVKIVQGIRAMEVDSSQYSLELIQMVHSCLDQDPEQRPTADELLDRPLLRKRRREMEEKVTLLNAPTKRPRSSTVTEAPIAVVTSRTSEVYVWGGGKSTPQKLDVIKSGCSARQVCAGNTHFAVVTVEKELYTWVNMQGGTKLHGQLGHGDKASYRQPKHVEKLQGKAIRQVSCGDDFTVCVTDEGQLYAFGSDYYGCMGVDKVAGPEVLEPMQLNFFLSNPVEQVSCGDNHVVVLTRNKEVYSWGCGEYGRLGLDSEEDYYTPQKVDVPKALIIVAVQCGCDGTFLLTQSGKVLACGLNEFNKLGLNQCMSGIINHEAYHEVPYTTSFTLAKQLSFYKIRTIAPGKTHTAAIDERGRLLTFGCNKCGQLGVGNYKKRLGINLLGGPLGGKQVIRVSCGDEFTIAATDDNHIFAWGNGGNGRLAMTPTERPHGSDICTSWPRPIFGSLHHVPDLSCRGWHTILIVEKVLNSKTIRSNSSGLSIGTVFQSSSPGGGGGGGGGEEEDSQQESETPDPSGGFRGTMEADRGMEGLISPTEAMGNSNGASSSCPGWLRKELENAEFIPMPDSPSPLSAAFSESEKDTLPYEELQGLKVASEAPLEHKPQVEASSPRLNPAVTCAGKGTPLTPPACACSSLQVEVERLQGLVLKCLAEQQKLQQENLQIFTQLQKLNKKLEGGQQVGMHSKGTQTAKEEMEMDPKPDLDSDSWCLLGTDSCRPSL
Procedure, shortened: as §1

CDC7/DBF4 = CDC7/DBF4 (Homo sapiens, UniProt O00311)
Procedure, shortened: as §1

[1] = read-out: % Enzyme Activity (relative to DMSO controls) / TP-0005801 (0.3µM) / Data 1
[2] = read-out: % Enzyme Activity (relative to DMSO controls) / TP-0005801 (0.3µM) / Data 2

remaining activity at 0.3 µM (EPHA6; [1]): 103%
remaining activity at 0.3 µM (EPHA6; [2]): 98.6%
remaining activity at 0.3 µM (LKB1; [1]): 107%
remaining activity at 0.3 µM (LKB1; [2]): 105%
remaining activity at 0.3 µM (PKAcg; [1]): 95.5%
remaining activity at 0.3 µM (PKAcg; [2]): 92.1%
remaining activity at 0.3 µM (TAOK3/JIK; [1]): 88.2%
remaining activity at 0.3 µM (TAOK3/JIK; [2]): 86.8%
remaining activity at 0.3 µM (PIM3; [1]): 96%
remaining activity at 0.3 µM (PIM3; [2]): 95.5%
remaining activity at 0.3 µM (c-MER; [1]): 106%
remaining activity at 0.3 µM (c-MER; [2]): 104%
remaining activity at 0.3 µM (P38a/MAPK14; [1]): 89%
remaining activity at 0.3 µM (P38a/MAPK14; [2]): 88.1%
remaining activity at 0.3 µM (CDK4/cyclin D1; [1]): 106%
remaining activity at 0.3 µM (CDK4/cyclin D1; [2]): 104%
remaining activity at 0.3 µM (MEK2; [1]): 87.6%
remaining activity at 0.3 µM (MEK2; [2]): 87.4%
remaining activity at 0.3 µM (CAMKK1; [1]): 77.1%
remaining activity at 0.3 µM (CAMKK1; [2]): 74%
remaining activity at 0.3 µM (CDK5/P25; [1]): 123%
remaining activity at 0.3 µM (CDK5/P25; [2]): 115%
remaining activity at 0.3 µM (SIK2; [1]): 79.4%
remaining activity at 0.3 µM (SIK2; [2]): 78.3%
remaining activity at 0.3 µM (PKCzeta; [1]): 97.2%
remaining activity at 0.3 µM (PKCzeta; [2]): 97.1%
remaining activity at 0.3 µM (YES/YES1; [1]): 87.4%
remaining activity at 0.3 µM (YES/YES1; [2]): 85.4%
remaining activity at 0.3 µM (FLT3; [1]): 3.9%
remaining activity at 0.3 µM (FLT3; [2]): 3.79%
remaining activity at 0.3 µM (PKG1a; [1]): 87.6%
remaining activity at 0.3 µM (PKG1a; [2]): 85.6%
remaining activity at 0.3 µM (EPHA1; [1]): 96.8%
remaining activity at 0.3 µM (EPHA1; [2]): 96.5%
remaining activity at 0.3 µM (SRPK1; [1]): 96.5%
remaining activity at 0.3 µM (SRPK1; [2]): 93.9%
remaining activity at 0.3 µM (CDC7/DBF4; [1]): 124%
remaining activity at 0.3 µM (CDC7/DBF4; [2]): 123%
SMILES: COc1cc(N2CCN(C)CC2)c(C)cc1Nc1ncc(Br)c(Nc2cccnc2N(C)C)n1 [TP-5801]
remaining activity at 0.3 µM (NEK9; [1]): 69.6%
remaining activity at 0.3 µM (NEK9; [2]): 68.6%
